Data as given in patent US5877013A, “Rhodosporidium D-amino acid oxidase” (Food Industry Research and Development Institute, priority 1997, dated 1999).

How the values were obtained:
R. toruloides DAO [1] = biological target: T1, R. toruloides DAO (Rhodotorula toruloides, UniProt P80324); assay: activity of purified DAO on amino acid substrates and Ceph C (relative activity, apparent Km); format: biochemical; parameters: made in house; host or cells: R. toruloides cells (native source, not recombinant); conditions: for activity of the purified DAO on substrate / relative activity of the purified DAO on substrate: purified R. toruloides DAO
T1 sequence (P80324 25-368): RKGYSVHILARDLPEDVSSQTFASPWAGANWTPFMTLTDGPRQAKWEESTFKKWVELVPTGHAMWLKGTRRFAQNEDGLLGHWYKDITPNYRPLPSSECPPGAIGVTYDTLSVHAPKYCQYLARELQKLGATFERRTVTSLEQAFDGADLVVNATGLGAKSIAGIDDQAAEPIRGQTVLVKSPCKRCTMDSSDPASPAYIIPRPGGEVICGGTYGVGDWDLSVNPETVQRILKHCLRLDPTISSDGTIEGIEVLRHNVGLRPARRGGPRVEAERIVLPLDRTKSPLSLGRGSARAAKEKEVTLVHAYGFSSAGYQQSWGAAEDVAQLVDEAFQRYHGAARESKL

R. toruloides DAO [2] = biological target: T1, R. toruloides DAO
R. toruloides DAO [3] = biological target: T1, R. toruloides DAO; assay: biochemical
[4] = substrate: CSCC[C@@H](N)C(=O)O; assay: purified protein, by the assay type; conditions: other: purified R. toruloides DAO
[5] = substrate: C[C@@H](N)C(=O)O; assay: purified protein, by the assay type; conditions: other: purified R. toruloides DAO
[6] = substrate: N[C@H](Cc1c[nH]c2ccccc12)C(=O)O; assay: purified protein, by the assay type; format: biochemical; conditions: other: purified R. toruloides DAO
[7] = substrate: [H][C@]12SCC(COC(C)=O)=C(C(=O)O)N1C(=O)[C@H]2NC(=O)CCC[C@@H](N)C(=O)O; assay: purified protein, by the assay type; format: biochemical; conditions: other: purified R. toruloides DAO
[8] = substrate: N[C@H](CO)C(=O)O; assay: purified protein, by the assay type; format: biochemical; conditions: other: purified R. toruloides DAO

O=C(O)[C@@H]1CCCN1 [L-proline]
activity of the purified DAO on substrate (R. toruloides DAO [1]): No activity

C[C@H](N)C(=O)O [L-alanine]
activity of the purified DAO on substrate (R. toruloides DAO [1]): No activity

N[C@H](CC(=O)O)C(=O)O [D-aspartic acid]
relative activity of the purified DAO on substrate (R. toruloides DAO [1]): < 20 % of maximal

N[C@H](CCC(=O)O)C(=O)O [D-glutamic acid]
relative activity of the purified DAO on substrate (R. toruloides DAO [1]): < 20 % of maximal

N[C@H](Cc1c[nH]c2ccccc12)C(=O)O [D-tryptophan]
activity of the purified DAO on substrate (R. toruloides DAO [1]): best substrate

CSCC[C@H](N)C(=O)O [L-methionine]
activity of the purified DAO on substrate (R. toruloides DAO [1]): No activity

O=C(O)c1ccccc1 [benzoic acid]
enzyme inhibited in the presence of aromatic acid (R. toruloides DAO [2]): 49%

CC(=O)OCC1=C(C(=O)O)N2C(=O)[C@@H](NC(=O)CCC[C@@H](N)C(=O)O)[C@H]2SC1 [Ceph C, cephalosporin C]
activity on Ceph C as compared with activity against D-alanine (R. toruloides DAO [1]; purified DAO, SEQ ID NO: 3): 95%

Nc1ccc(C(=O)O)cc1 [p-aminobenzoic acid]
Ki (R. toruloides DAO [3]): 300 µM | enzyme inhibited in the presence of aromatic acid (R. toruloides DAO [2]): 72%

N[C@@H](Cc1ccccc1)C(=O)O [L-phenylalanine]
activity of the purified DAO on substrate (R. toruloides DAO [1]): No activity

O=C(O)c1cccnc1 [nicotinic acid]
enzyme inhibited in the presence of aromatic acid (R. toruloides DAO [2]): 21%

C[C@H](O)[C@@H](N)C(=O)O [D-threonine]
relative activity of the purified DAO on substrate (R. toruloides DAO [1]): < 20 % of maximal

NCCCC[C@@H](N)C(=O)O [D-lysine]
relative activity of the purified DAO on substrate (R. toruloides DAO [1]): < 20 % of maximal

B1: R. toruloides DAO (Rhodotorula toruloides) (protein)
chain: T1 sequence (P80324 25-368)
notes: made in house; host or cells: R. toruloides cells (native source, not recombinant)
Km [4]: 220 µM | Km [5]: 680 µM | Km [6]: 180 µM | Km [7]: 650 µM | Km [8]: 3400 µM
